What is called % Inhibition is the percentage by which the read-out fell short of the control. The melting point is the temperature of the solid-liquid transition. For orientation: Km means the concentration of substrate that gives half-maximal velocity.

Data set [1] deals with cynomologous monkey C17,20 lyase. Briefly: In vitro C17,20 lyase assay (testicular microsomes). The data set is classed as biochemical, cynomolgus monkey. Also on record: unit of the concentration uncertain. The method, then:
In vitro C17,20 lyase assay: Compounds were tested for inhibition of cynomologous monkey C17,20 lyase in vitro using microsomal preparations of the enzyme from testicular tissue. Testes were removed from anesthetized animals and flash frozen in liquid nitrogen. Microsomes were isolated as described in Schatzman et al., Anal. Biochem., 175, 219-226 (1988). The compound to be tested was dissolved in DMSO and diluted in 0.05M potassium phosphate buffer, pH 7.4, to give the desired concentrations of test compound, in an amount which contributes 0.1% v/v DMSO to the total assay volume. […] Control assays contained all components, including DMSO, but no test compound. All assays were performed in duplicate. […] The complete assay was incubated at 34° C. for 6 minutes. […] Radioactivity in the steriod peaks was measured using a Radiometric Model HS or Model A515 Flo-One detector. The enzyme activity for each assay was calculated from the conversion of substrate to products, and. the results expressed as percent inhibition of control.

The subject of data set [2] is cynomolgus monkey 5α-reductase. Conditions: read-out: Km values of testosterone, multiple experiments. The method, then: (§1) In vitro 5α-reductase assay: The activity of the present compounds as inhibitors of steroid 5α-reductase was determined using microsomal preparations of the 5α-reductase enzyme from human or laboratory animal prostate tissue. Specifically, prostate tissue was rapidly frozen in liquid nitrogen following removal from the human patient or from a cynomologus monkey (Macaca fascicularis) and subsequently stored at −80° C. The tissue was thawed, minced, and then homogenized in 5 volumes of 0.05M potassium phosphate buffer, pH 7.0, using a Tekmar homogenizer with 3×5 second bursts, followed by 10 strokes in a Dounce homogenizer. The homogenate was sonified in three pulses of 5 seconds each at 50% of maximum power. The homogenate was subjected to differential centrifugation with each supernatant successively centrifuged at 600×G and […] in a Beckman J21 centrifuge followed by 120,000×G in a Beckman Model L5-75 ultracentrifuge. The final pellet, containing the microsomal fraction, was reserved and resuspended in 0.05M potassium phosphate buffer, pH 7.0, containing 25% (w/v) glycerol equal to 1 mL per 3 g wet tissue. The suspension was divided into aliquots, flash frozen using dry ice in methanol, and stored at −80° C. […] Protein concentration was determined by the BioRad dye binding method (BioRad, Richmond, Calif., USA). […]

In the next data set the test system is rat 5α-reductase. To be noted: read-out: Km values of testosterone, multiple experiments.
For the next data set, the target named is T1, human 5α-reductase (Homo sapiens, UniProt P31213).
T1 construct: microsomal preparations of the 5α-reductase enzyme from human or laboratory animal prostate tissue; from tissue; host or cells: human prostate, microsomes
T1 sequence (P31213 1-254): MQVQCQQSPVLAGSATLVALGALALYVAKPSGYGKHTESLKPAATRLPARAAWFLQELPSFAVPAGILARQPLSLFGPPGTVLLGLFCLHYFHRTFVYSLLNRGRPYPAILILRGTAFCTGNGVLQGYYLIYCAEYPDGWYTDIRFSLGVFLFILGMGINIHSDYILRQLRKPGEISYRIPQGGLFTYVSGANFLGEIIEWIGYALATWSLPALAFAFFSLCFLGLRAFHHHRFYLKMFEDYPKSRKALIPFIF
Briefly: In vitro 5α-reductase assay (prostate microsomes), human. Conditions: read-out: Km values of testosterone, multiple experiments. It counts as biochemical. The method, then:
as §1

Setting [3] is: Conc. 1 (unit uncertain), Preinc. 0 min.
Where [4] appears, read: Conc. 1 (unit uncertain), Preinc. 40 min.
Setting [5] is: Conc. 10 (unit uncertain), Preinc. 0 min.
[6] abbreviates: Conc. 10 (unit uncertain), Preinc. 40 min.

For the molecule `C[C@]12CC[C@H](O)CC1=CC[C@@H]1[C@@H]2CC[C@]2(C)/C(=C(/F)CO)CC[C@@H]12` [E CH2OH, (17E)-20-Fluoropregna-5,17(20)-diene-3β,21-diol], the melting point fell in the range of 214 to 216 °C. The “% Inhibition” value in data set [1] (setting [3]) came out at 63%. Moreover, in data set [1] (setting [4]), the “% Inhibition” value is on record as 61%. The “% Inhibition” value in data set [1] (setting [5]) turned out to be 85%. For the same molecule, the “% Inhibition” value in data set [1] (setting [6]) is on record as 87%.

For `C/C(F)=C1/CC[C@H]2[C@@H]3CC=C4C[C@@H](O)CC[C@]4(C)[C@H]3CC[C@]12C` [E CH3, (17E)-20-fluoropregna-5,17(20)-dien-3β-ol], the melting point lay in the range of 129 to 133 °C. In addition, the “% Inhibition” value in data set [1] (setting [3]) was 54%. Also, in data set [1] (setting [4]), the “% Inhibition” value is on record as 60%. Moreover, the “% Inhibition” value in data set [1] (setting [5]) amounted to 88%. Also, the “% Inhibition” value in data set [1] (setting [6]) was found to be 94%.

`C[C@]12CC[C@H](O)CC1=CC[C@@H]1[C@@H]2CC[C@]2(C)/C(=C(\F)CO)CC[C@@H]12` [Z CH2OH, (17Z)-20-Fluoropregna-5,17(20)-diene-3β,21-diol] gave a melting point of 198 to 203 °C. In data set [1] (setting [3]), the “% Inhibition” value is 96%. The “% Inhibition” value in data set [1] (setting [4]) worked out at 94%. In addition, in data set [1] (setting [5]), the “% Inhibition” value is 100%. Also, the “% Inhibition” value in data set [1] (setting [6]) was 100%.

In the case of `C/C(F)=C1\CC[C@H]2[C@@H]3CC=C4C[C@@H](O)CC[C@]4(C)[C@H]3CC[C@]12C` [Z CH3, (17Z)-20-Fluoropregna-5,17(20)-dien-3β-ol], the melting point lay in the range of 153 to 155 °C. Besides, in data set [1] (setting [3]), the “% Inhibition” value came out at 49%. The “% Inhibition” value in data set [1] (setting [4]) is given as 72%. The “% Inhibition” value in data set [1] (setting [5]) was found to be 78%. Further, the “% Inhibition” value in data set [1] (setting [6]) is recorded as 94%.

As for `C[C@]12CC[C@H]3[C@@H](CCC4=CC(=O)CC[C@@]43C)[C@@H]1CC[C@@H]2O` [testosterone, 17β-hydroxyandrost-4-en-3-one], the figures for the Km (in data set [2]; with rat 5α-reductase; at human 5α-reductase) were 0.025 to 0.091 µM, 0.74 to 0.9 µM and 0.125 to 0.273 µM, respectively.

The values are drawn from patent US6413951B2, “20-fluoro-17(20)-vinyl steroids” (Aventis Pharmaceuticals, Inc., priority 2000, dated 2002).
